Source: US7452865B2, “Antagonistic analogs of GH RH (2003)” (The Administrare's of the Tulane Educational Fund, priority 2004, dated 2008)
Marks after values point to notes of the source that are not given here. Square brackets hold non-standard residues; d marks the D form. Peptide text beside a SMILES is read from it. * marks the point of attachment. Phe(4-amidino) = N=C(N)c1ccc(C[C@H](N)C(=O)O)cc1; Phe(4-Cl) = N[C@@H](Cc1ccc(Cl)cc1)C(=O)O; hArg = N=C(N)NCCCC[C@H](N)C(=O)O; Nle = CCCC[C@H](N)C(=O)O; Abu = CC[C@H](N)C(=O)O; PhAc = O=C(Cc1ccccc1)*

What was measured:
[1] = system: PC-3 human prostate cancer xenografts; assay: PC-3 xenografts in nude mice, Experiment 1: tumor growth; assay type: in vivo
Procedure, shortened: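 Male nude mice carried s.c. PC-3 hormone-independent prostate tumour fragments on both flanks. Once tumours reached about 50 mm^3, groups of 7–8 mice received vehicle or peptide at 10 μg/day s.c. once daily for 28 days. Tumour volume was measured twice weekly, with tumour weight and serum IGF-I (RIA) taken at day 29; data are means ±S.E., two-tailed t-test.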

[2] = system: hGH-RH(1-29)NH2 induced GH release; assay: Inhibition of GH release in superfused rat pituitary system; assay type: cell-based
Procedure, shortened: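 GH output was quantified by double-antibody RIA in superfusates of rat pituitary cells. Peptides were applied for 9 min at various concentrations before a 3-min 1 nM hGH-RH(1-29)NH2 pulse, with further pulses 30–120 min later; net integral responses given as percent of the original response.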

[3] = system: DMS-153 human SCLC xenografts; assay: DMS-153 human SCLC xenografts in nude mice: tumor growth; assay type: in vivo
Method: Male nude mice were implanted s.c. with 3 mm^3 pieces of DMS-153 human SCLC tissue. When tumors reached a volume of approx. 100 mm^3 the mice were divided into 3 experimental groups of 68 animals each and received the following treatment for 6 weeks group 1 (control), vehicle solution; group 2, Peptide 67 (10 μg/day s.c.); group 3, Peptide 31 (10 μg/day s.c.). Tumor volumes were recorded twice a week. At the end of treatment, mice were anesthetized with isoflurane, killed by decapitation, trunk blood was collected for measurement of serum IGF-I, and tumors were excised and weighed. Data are presented as means±S.E. Data were evaluated by one way ANOVA and the Student-Newman-Keuls test.

[4] = system: GH-RH receptor isoforms on membrane fractions of human PC-3 prostate tumors; assay type: binding; details: general statement
Procedure, shortened: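 Competitive displacement of [^125I]JV-1-42 from crude membranes of human PC-3 prostate tumours grown as nude-mouse xenografts, with unlabelled peptides at 10^−12 to 10^−6 M. Bound radioactivity in the centrifuged pellet gamma-counted; Ki from Munson–Rodbard analysis. Relative affinity = Ki of reference peptide (JV-1-36 or JV-1-38) / Ki of test antagonist.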

[5] = system: HT-29 human colon cancer xenografts; assay: HT-29 human colon cancer xenografts in nude mice: tumor growth; assay type: in vivo; details: 10 μg/day s.c., 62 days
Method: HT-29 human colon cancers were transplanted sc. into male nude mice. 19 days after transplantation, the mice were divided into two groups of 10 animals each. and the treatment was started. Mice in the treatment group received single daily injections of Peptide 67 sc. at a dose of 10 μg/day for 62 days, while the control group was injected with the vehicle solvent. Tumors were measured regularly, and tumor volume was calculated. The mice were sacrificed at the end of experiment and tumor weights were measured.

[6] = 10 μg/day s.c., 28 days, vs control
[7] = 10 μg/day s.c., 6 weeks, vs control

CCCC[C@H](NC(=O)[C@@H](NC(=O)[C@H](CC(=O)O)NC(=O)[C@H](CCC(N)=O)NC(=O)[C@H](CC(C)C)NC(=O)[C@H](CC(C)C)NC(=O)[C@H](CCCCN)NC(=O)[C@H](CCCNC(=N)N)NC(=O)[C@H](C)NC(=O)[C@H](CO)NC(=O)[C@H](CC(C)C)NC(=O)[C@H](CCC(N)=O)NC(=O)[C@H](CC)NC(=O)[C@H](CC(C)C)NC(=O)[C@@H](NC(=O)[C@H](CCCCN)NC(=O)[C@H](CCCNC(=N)N)NC(=O)[C@H](Cc1ccc(OC)cc1)NC(=O)[C@H](Cc1ccc(C(=N)N)cc1)NC(=O)[C@H](CC(N)=O)NC(=O)[C@@H](NC(=O)[C@H](Cc1ccc(Cl)cc1)NC(=O)[C@@H](NC(=O)[C@H](C)NC(=O)[C@H](CC(=O)O)NC(=O)[C@@H](CCCNC(=N)N)NC(=O)[C@H](Cc1ccc(O)cc1)NC(=O)Cc1ccccc1)[C@@H](C)CC)[C@@H](C)O)C(C)C)[C@@H](C)CC)C(=O)N[C@H](CCCNC(=N)N)C(=O)N[C@@H](CCCCNC(=N)N)C(N)=O [Peptide 67, [PhAc-Tyr^1, D-Arg^2, Phe(pCl)^6, Amp^9, Tyr(Me)^10, Abu^15, Nle^27, D-Arg^28, Har^29]hGH-RH(1-29)NH2] (PhAc-Y[dR]DAI[Phe(4-Cl)]TN[Phe(4-amidino)]Y(Me)RKVL[Abu]QLSARKLLQDI[Nle][dR][hArg]-NH2)
Tumor volume (mm^3) Final ([1]; 10 μg/day s.c., 28 days): 200 ± 39.5* mm^3 | Tumor volume doubling time ([1]; 10 μg/day s.c., 28 days): 17.0 ± 3.51 days | Tumor weight ([1]; 10 μg/day s.c., 28 days): 150 ± 22.1 mg | Tumor volume Final (% inhibition) [1, 6]: (60%) | Tumor weight (% inhibition) [1, 6]: (60%) | inhibitory effect on the growth of PC-3 tumors (in words) ([1]; 10 μg/day s.c., compared with JV-1-38): stronger inhibitory effect on the growth of PC-3 tumors than the reference peptide JV-1-38 | Tumor volume (mm^3) Initial ([1]; at start of treatment): 46.8 ± 8.11 mm^3 | GH response (% of control) 0 min ([2]; antagonist 30 nM, 1 nM hGH-RH(1-29)NH2 at 0 min): 28 % of control | GH response (% of control) 30 min ([2]; antagonist 30 nM, 1 nM hGH-RH(1-29)NH2 at 30 min): 15 % of control | GH response (% of control) 60 min ([2]; antagonist 30 nM, 1 nM hGH-RH(1-29)NH2 at 60 min): 18 % of control | GH response (% of control) 90 min ([2]; antagonist 30 nM, 1 nM hGH-RH(1-29)NH2 at 90 min): 20 % of control | GH response (% of control) 120 min ([2]; antagonist 30 nM, 1 nM hGH-RH(1-29)NH2 at 120 min): 23 % of control | endocrine antagonistic potency: inhibition of the GH release stimulated by hGH-RH(1-29)NH2 (in words) ([2]; general statement, in vitro and in vivo): high endocrine antagonistic potencies | Tumor volume (mm^3) Final ([3]; 10 μg/day s.c., 6 weeks): 2650 ± 30* mm^3 | Tumor weight ([3]; 10 μg/day s.c., 6 weeks): 1.60 ± 0.19 g | Tumor volume Final (% inhibition) [3, 7]: (28%) | Tumor weight (% inhibition) [3, 7]: (31%) | Tumor volume (mm^3) Initial ([3]; at start of treatment): 132 ± 24 mm^3 | binding affinities to the tumoral receptors for GH-RH (in words) [4]: extremely high binding affinities | Final tumor volume (mm^3) [5]: 1218 ± 320* mm^3 | Tumor weight [5]: 1434 ± 405 mg | inhibition in the volumes of HT-29 tumors ([5]; vs control group): 56.3% | inhibition in the weights of HT-29 tumors ([5]; vs control group): 53.9%
